Reference: US10202368B2, “CXCR7 receptor modulators” (IDORSIA PHARMACEUTICALS LTD, priority 2014, dated 2019)

Each compound was assayed against CXCR7 (Homo sapiens (Human), UniProt P25106) (assay: PathHunter CHO-K1 CXCR7 β-arrestin assay (agonistic activity)). Conditions: β-arrestin recruitment in PathHunter CHO-K1 CXCR7 β-arrestin cells, 90 minutes at 37° C., geometric mean values.
Sequence of CXCR7 (P25106 whole entry): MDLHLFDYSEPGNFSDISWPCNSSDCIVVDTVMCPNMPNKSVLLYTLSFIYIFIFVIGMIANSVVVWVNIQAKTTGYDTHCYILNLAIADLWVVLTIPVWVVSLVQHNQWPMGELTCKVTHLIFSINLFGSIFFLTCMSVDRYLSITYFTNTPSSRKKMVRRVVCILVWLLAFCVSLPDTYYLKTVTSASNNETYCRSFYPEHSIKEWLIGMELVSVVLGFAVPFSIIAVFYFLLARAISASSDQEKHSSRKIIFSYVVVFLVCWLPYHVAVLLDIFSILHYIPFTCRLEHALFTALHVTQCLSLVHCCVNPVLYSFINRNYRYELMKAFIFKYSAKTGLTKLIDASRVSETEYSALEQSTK
Sequence of CXCR7 (P32121 whole entry partner): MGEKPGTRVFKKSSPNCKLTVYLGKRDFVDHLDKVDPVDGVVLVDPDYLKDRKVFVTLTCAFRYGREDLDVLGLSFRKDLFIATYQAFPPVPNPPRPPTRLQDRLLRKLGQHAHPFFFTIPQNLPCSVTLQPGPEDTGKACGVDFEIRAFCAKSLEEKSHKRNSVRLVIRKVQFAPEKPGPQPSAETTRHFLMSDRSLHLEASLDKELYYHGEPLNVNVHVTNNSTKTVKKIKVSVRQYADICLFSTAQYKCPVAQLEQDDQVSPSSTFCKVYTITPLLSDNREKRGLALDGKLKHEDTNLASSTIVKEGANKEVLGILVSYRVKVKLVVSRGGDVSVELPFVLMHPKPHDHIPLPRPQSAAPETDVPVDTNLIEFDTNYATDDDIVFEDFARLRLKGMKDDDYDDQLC
Format: cell-based
Method in brief: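 The enzyme-fragment complementation format pairs ProLink-tagged CXCR7 with EA–β-arrestin 2 in CHO-K1 cells, seeded at 5000/well for 24 h and serum-starved in OPTIMEM 3–4 h. Compounds were added in HBSS/20 mM HEPES/0.2% BSA for 90 min at 37 °C, followed by 1 h detection at room temperature and chemiluminescence read-out. EC50 is the geometric mean of several measurements.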
Work on `CC(C)N(CCN(Cc1ccccc1C(F)(F)F)C(=O)CNc1cccc2c1C(=O)N(CC1CC1)CCO2)C(=O)OC(C)(C)C` [Example 35, {2-[[2-(4-Cyclopropylmethyl-5-oxo-2,3,4,5-tetrahydro-benzo[f][1,4]oxazepin-6-ylamino)-acetyl]-(2-trifluoromethyl-benzyl)-amino]-ethyl}-isopropyl-carbamic acid tert-butyl ester] yielded an EC50 of 420 nM.
Compound `CCN1CCOc2c(cccc2NCC(=O)N(CCNC(C)C)Cc2ccccc2C(F)(F)F)C1` [Example 71, 2-(4-Ethyl-2,3,4,5-tetrahydro-benzo[f][1,4]oxazepin-9-ylamino)-N-(2-isopropylamino-ethyl)-N-(2-trifluoromethyl-benzyl)-acetamide] has an EC50 of 4 nM.
With `CN(CCN(Cc1ccccc1C(F)(F)F)C(=O)CNc1cccc2c1C(=O)N(CC1CC1)CCO2)C(=O)OC(C)(C)C` [Example 37, {2-[[2-(4-Cyclopropylmethyl-5-oxo-2,3,4,5-tetrahydro-benzo[f][1,4]oxazepin-6-ylamino)-acetyl]-(2-trifluoromethyl-benzyl)-amino]-ethyl}-methyl-carbamic acid tert-butyl ester] the EC50 was 410 nM.
In the case of `CCN1CCN(CC)c2c(NCC(=O)N(CCN3CCCC3)Cc3ncccc3C(F)(F)F)cccc2C1=O` [Example 48, 2-(1,4-Diethyl-5-oxo-2,3,4,5-tetrahydro-1H-benzo[e][1,4]diazepin-9-ylamino)-N-(2-pyrrolidin-1-yl-ethyl)-N-(3-trifluoromethyl-pyridin-2-ylmethyl)-acetamide], the EC50 is reported as 47 nM.
In the case of `CN(C)CCN(Cc1ccccc1C(F)(F)F)C(=O)CNc1cccc2c1CCN(C(=O)C(F)(F)F)CC2` [Example 26, N-(2-Dimethylamino-ethyl)-2-[3-(2,2,2-trifluoro-acetyl)-2,3,4,5-tetrahydro-1H-benzo[d]azepin-6-ylamino]-N-(2-trifluoromethyl-benzyl)-acetamide], the EC50 is reported as 4 nM.
`CN(C)CCN(Cc1ccccc1Cl)C(=O)CNc1cccc2c1C(=O)N(CC1CC1)CCO2` [Example 32, N-(2-Chloro-benzyl)-2-(4-cyclopropylmethyl-5-oxo-2,3,4,5-tetrahydro-benzo[f][1,4]oxazepin-6-ylamino)-N-(2-dimethylamino-ethyl)-acetamide] showed an EC50 of 15 nM.
`CC(C)CN1CCOc2c(cccc2NCC(=O)N(CCN(C)C)Cc2ncccc2C(F)(F)F)C1` [Example 2, N-(2-Dimethylamino-ethyl)-2-(4-isobutyl-2,3,4,5-tetrahydro-benzo[f][1,4]oxazepin-9-ylamino)-N-(3-trifluoromethyl-pyridin-2-ylmethyl)-acetamide] gave an EC50 of 3 nM.
Compound `CCN1CCOc2c(NCC(=O)N(CCN(C)C)Cc3ncccc3C)cccc2C1=O` [Example 39, N-(2-Dimethylamino-ethyl)-2-(4-ethyl-5-oxo-2,3,4,5-tetrahydro-benzo[f][1,4]oxazepin-9-ylamino)-N-(3-methyl-pyridin-2-ylmethyl)-acetamide] has an EC50 of 400 nM.
With `CCN1CCOc2c(cccc2NCC(=O)N(CCN(C)C)Cc2c(C(F)(F)F)nn(C)c2Cl)C1` [Example 77, N-(5-Chloro-1-methyl-3-trifluoromethyl-1H-pyrazol-4-ylmethyl)-N-(2-dimethylamino-ethyl)-2-(4-ethyl-2,3,4,5-tetrahydro-benzo[f][1,4]oxazepin-9-ylamino)-acetamide] the EC50 was 280 nM.
For `CCCN1CCOc2c(cccc2NCC(=O)N(CCN(C)C)Cc2ncccc2Cl)C1` [Example 6, N-(3-Chloro-pyridin-2-ylmethyl)-N-(2-dimethylamino-ethyl)-2-(4-propyl-2,3,4,5-tetrahydro-benzo[f][1,4]oxazepin-9-ylamino)-acetamide], the EC50 was 19 nM.
With `Cc1cccnc1CN(CCN(C)C)C(=O)CNc1cccc2c1N(C)CCN(CC1CC1)C2=O` [Example 44, 2-(4-Cyclopropylmethyl-1-methyl-5-oxo-2,3,4,5-tetrahydro-1H-benzo[e][1,4]diazepin-9-ylamino)-N-(2-dimethylamino-ethyl)-N-(3-methyl-pyridin-2-ylmethyl)-acetamide] the EC50 was 130 nM.
For `O=C(CNc1cccc2c1OCCN(CC1CC1)C2)N(CCN1CCCC1)Cc1ncccc1C(F)(F)F` [Example 82, 2-(4-Cyclopropylmethyl-2,3,4,5-tetrahydro-benzo[f][1,4]oxazepin-9-ylamino)-N-(2-pyrrolidin-1-yl-ethyl)-N-(3-trifluoromethyl-pyridin-2-ylmethyl)-acetamide], the EC50 was 2 nM.
For `CN(C)CCN(Cc1ccccc1C(F)(F)F)C(=O)CNc1cccc2c1N(C)CCN(CC1CC1)C2` [Example 49, 2-(4-Cyclopropylmethyl-1-methyl-2,3,4,5-tetrahydro-1H-benzo[e][1,4]diazepin-9-ylamino)-N-(2-dimethylamino-ethyl)-N-(2-trifluoromethyl-benzyl)-acetamide], the EC50 was 2 nM.
`CCCN1CCOc2c(cccc2NCC(=O)N(CCN(C)C)Cc2ccccc2C(F)(F)F)C1` [Example 7, N-(2-Dimethylamino-ethyl)-2-(4-propyl-2,3,4,5-tetrahydro-benzo[f][1,4]oxazepin-9-ylamino)-N-(2-trifluoromethyl-benzyl)-acetamide] showed an EC50 of 4 nM.
`CC(C)CN1CCOc2c(cccc2NCC(=O)N(CCN(C)C)Cc2ccc(F)cc2C(F)(F)F)C1` [Example 17, N-(2-Dimethylamino-ethyl)-N-(4-fluoro-2-trifluoromethyl-benzyl)-2-(4-isobutyl-2,3,4,5-tetrahydro-benzo[f][1,4]oxazepin-9-ylamino)-acetamide] showed an EC50 of 59 nM.
In the case of `Cc1cccc(CN(CCN(C)C)C(=O)CNc2cccc3c2C(=O)N(CC2CC2)CCO3)n1` [Example 33, 2-(4-Cyclopropylmethyl-5-oxo-2,3,4,5-tetrahydro-benzo[f][1,4]oxazepin-6-ylamino)-N-(2-dimethylamino-ethyl)-N-(6-methyl-pyridin-2-ylmethyl)-acetamide], the EC50 is reported as 24 nM.
With `CNCCN(Cc1ccccc1C(F)(F)F)C(=O)CNc1cccc2c1C(=O)N(CC1CC1)CCO2` [Example 36, 2-(4-Cyclopropylmethyl-5-oxo-2,3,4,5-tetrahydro-benzo[f][1,4]oxazepin-6-ylamino)-N-(2-methylamino-ethyl)-N-(2-trifluoromethyl-benzyl)-acetamide] the EC50 was 12 nM.
For `CCN1CCOc2c(NCC(=O)N(CCNC(C)(C)C)Cc3ccccc3C(F)(F)F)cccc2C1=O` [Example 40, N-(2-tert-Butylamino-ethyl)-2-(4-ethyl-5-oxo-2,3,4,5-tetrahydro-benzo[f][1,4]oxazepin-9-ylamino)-N-(2-trifluoromethyl-benzyl)-acetamide], the EC50 was 7 nM.
`CC(C)(C)NCCN(Cc1ccccc1C(F)(F)F)C(=O)CNc1cccc2c1OCCN(CC1CC1)C2=O` [Example 63, N-(2-tert-Butylamino-ethyl)-2-(4-cyclopropylmethyl-5-oxo-2,3,4,5-tetrahydro-benzo[f][1,4]oxazepin-9-ylamino)-N-(2-trifluoromethyl-benzyl)-acetamide] showed an EC50 of 2 nM.
`CCN1CCOc2c(cccc2NCC(=O)N(CCN(C)C)Cc2ncccc2C(F)(F)F)C1` [Example 72, N-(2-Dimethylamino-ethyl)-2-(4-ethyl-2,3,4,5-tetrahydro-benzo[f][1,4]oxazepin-9-ylamino)-N-(3-trifluoromethyl-pyridin-2-ylmethyl)-acetamide] gave an EC50 of 6 nM.
